Measurements: publication PMC11078746 (Nature, 2024)
Several values for one entry are separate records, joined by “and”; a condition that tells them apart may be missing. Identical values can stand only once.

Columns and labels:
HEC265 = test: CFA 10-14 day clonogenic assay; assay type: cell-based; details: Homo sapiens
HCT116 = test: CFA 10-14 day clonogenic assay; assay type: cell-based; details: Homo sapiens, HCT-116
LOVO = test: CFA 10-14 day clonogenic assay; assay type: cell-based; details: Homo sapiens
OVK18 xenograft = test: MSI xenograft model efficacy; assay type: in vivo, mouse; details: OVK18, Ovarian carcinoma; 60 or 120 mg/kg
Experimental: (§1) All animal studies were conducted in accordance with ethics and procedures covered by permit BS-2275 and BS-1975 issued by the Kantonales Veterinäramt Basel-Stadt and in strict adherence to guidelines of the Eidgenössisches Tierschutzgesetz and the Eidgenössische Tierschutzverordnung, Switzerland. All animal studies were approved by the internal ethics committee. All animals had access to food and water ad libitum and were identified with transponders. They were housed in a specific-pathogen-free facility in IVC racks under a 12 h–12 h light–dark cycle. To establish cell-line-derived xenograft models, 6–7-week-old female athymic nude (Crl:NU(NCr)-Foxn1^nu) or SCID-BEIGE (CB17.Cg-PrkdcscidLystbg-J/Crl) mice from Charles River were engrafted subcutaneously with 5 million tumour cells in HBSS (H6648, Sigma-Aldrich). For SNU-407, Lovo, IM95, RL95.2, Ishikawa and IGROV-1, the cells were concentrated in 50% Matrigel (354234, Corning). Patient-derived xenografts were induced and expanded by transplantation as previously described. […] For the efficacy experiment, mice were randomized into groups (n = 5–6) for a mean tumour size of 100–150 mm^3. […] Blood samples were collected on day 7 and 91. […] Tumour responses are reported with the measures of tumour volumes from the treatment start. […] Animals were randomized (n = 3) and tumour samples were collected at 0, 1, 4, 8 and 24 h on the first day and then collected 4 h after the last treatment on day 3, 8, 10, 14 (including a 24 h timepoint), 17 and 21. Tumours were excised, weighed, either frozen in liquid nitrogen and cryogenic dry pulverized with the CryoPrep system (model CP-02, Covaris) or processed to FFPE after fixation. […] On day 12, blood samples were collected for PK analysis. On the last day (3 h after the last treatment), tumours were excised, weighed, frozen in liquid nitrogen and cryogenic dry pulverized for PD analysis.

HCT116 TP53 WT xenograft = test: MSI xenograft model efficacy; assay type: in vivo, mouse; details: for Mean TVol / Tumour volume (TVol): HCT116 WT, 60 mpk; for Tumour volume (TVol): single mouse, 60 mg/kg
Experimental: as §1

HEC151 = test: 4 day proliferation assay (CellTiter-Glo); details: Homo sapiens, 96 h, read-out: 4 day assay GI50
hERG = hERG (Homo sapiens, UniProt Q12809); test: hERG binding (patch clamp)
NUGC3 = test: CFA 10-14 day clonogenic assay; assay type: cell-based; details: Homo sapiens, NUGC-3
102 common targets = test: Safety pharmacology panel; details: all except COX1
HEC59 = test: CFA 10-14 day clonogenic assay; assay type: cell-based; details: Homo sapiens
HEC108 = test: CFA 10-14 day clonogenic assay; assay type: cell-based; details: Homo sapiens
HEC6 = test: 4 day proliferation assay (CellTiter-Glo); details: Homo sapiens, HEC-6, 96 h, read-out: 4 day assay GI50
SNU1 = test: CFA 10-14 day clonogenic assay; assay type: cell-based; details: Homo sapiens
HCT116 cells = details: after HRO761 treatment
Experimental: Membranes were incubated overnight with the primary antibodies and for 1 h with the secondary antibodies. Washing steps were performed with 1× PBS containing 0.01% Tween-20. […] We performed the immunoblots three times except for blots shown in Figs. 2e and 4c and Extended Data Figs. 6b and 8f, which were performed twice. […] Uncropped and unprocessed scans of all blots are available as a Supplementary Figs. 1 (main text figures, which contain Figs. 2d,e, 3a,g and 4c) and 2 (Extended Data Figs. 1d,h,i, 3b–e,h,i, 5, 6a,b, 7c, 8b,g) in the Supplementary Information.

2313287 = test: CFA 10-14 day clonogenic assay; assay type: cell-based; details: Homo sapiens

Chain of hERG (Q12809 whole entry): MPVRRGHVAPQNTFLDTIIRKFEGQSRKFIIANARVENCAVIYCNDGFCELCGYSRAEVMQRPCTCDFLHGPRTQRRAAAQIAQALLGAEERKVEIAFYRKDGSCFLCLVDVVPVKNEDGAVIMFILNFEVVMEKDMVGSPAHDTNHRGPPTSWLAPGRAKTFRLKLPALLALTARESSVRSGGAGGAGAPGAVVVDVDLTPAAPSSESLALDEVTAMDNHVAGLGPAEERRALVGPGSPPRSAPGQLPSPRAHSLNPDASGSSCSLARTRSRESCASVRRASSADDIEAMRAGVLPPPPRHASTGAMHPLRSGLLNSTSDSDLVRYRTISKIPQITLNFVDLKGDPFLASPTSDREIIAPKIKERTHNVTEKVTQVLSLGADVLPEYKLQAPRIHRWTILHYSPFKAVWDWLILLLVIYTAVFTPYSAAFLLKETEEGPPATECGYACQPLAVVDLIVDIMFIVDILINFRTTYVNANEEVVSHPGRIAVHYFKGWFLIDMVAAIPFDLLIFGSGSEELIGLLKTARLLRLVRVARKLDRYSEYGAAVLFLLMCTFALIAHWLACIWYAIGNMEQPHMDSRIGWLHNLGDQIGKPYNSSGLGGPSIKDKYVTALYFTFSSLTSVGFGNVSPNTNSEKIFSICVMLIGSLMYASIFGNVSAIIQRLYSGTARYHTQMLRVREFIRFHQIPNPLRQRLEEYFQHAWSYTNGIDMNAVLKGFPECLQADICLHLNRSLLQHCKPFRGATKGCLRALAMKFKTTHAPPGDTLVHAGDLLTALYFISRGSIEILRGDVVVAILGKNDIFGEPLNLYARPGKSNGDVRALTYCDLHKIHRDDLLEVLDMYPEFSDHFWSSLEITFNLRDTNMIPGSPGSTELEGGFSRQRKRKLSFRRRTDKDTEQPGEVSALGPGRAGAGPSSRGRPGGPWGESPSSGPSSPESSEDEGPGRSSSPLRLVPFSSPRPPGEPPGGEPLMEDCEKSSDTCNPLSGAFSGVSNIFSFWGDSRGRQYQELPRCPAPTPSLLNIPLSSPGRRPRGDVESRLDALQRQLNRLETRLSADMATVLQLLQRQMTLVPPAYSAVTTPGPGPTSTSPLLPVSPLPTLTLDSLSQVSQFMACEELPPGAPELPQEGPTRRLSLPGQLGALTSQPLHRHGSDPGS

## CCc1c(N2CCN(C(=O)c3ncnc(C)c3O)CC2)c(=O)n2nc(C3=CCOCC3)nc2n1CC(=O)Nc1ccc(C(F)(F)F)cc1Cl [HRO761]
HEC265
  GI50: 61 nM
HCT116
  GI50: 59 nM
LOVO
  GI50: 73 nM
OVK18 xenograft
  Best average response: 500
HCT116 TP53 WT xenograft; HCT116 P53 WT, colorectal carcinoma, 60 or 120 mg/kg
  Best average response: -60
HCT116 TP53 WT xenograft; day 0
  Mean TVol: 219.01 mm3
HCT116 TP53 WT xenograft; day 0 post 1st dose
  Tumour volume (TVol): 93.52 mm3 and 234.39 mm3 and 157.76 mm3 and 320.89 mm3 and 161.54 mm3 and 345.97 mm3
HCT116 TP53 WT xenograft; day 3
  Mean TVol: 281.33 mm3
  Tumour volume (TVol): 104.72 mm3 and 379.81 mm3 and 232.95 mm3 and 368.27 mm3 and 173.78 mm3 and 428.47 mm3
HCT116 TP53 WT xenograft; day 7
  Mean TVol: 242.31 mm3
  Tumour volume (TVol): 103.44 mm3 and 369.23 mm3 and 158.31 mm3 and 312.72 mm3
HCT116 TP53 WT xenograft; day 10
  Mean TVol: 237.77 mm3
HCT116 TP53 WT xenograft; day 14
  Mean TVol: 208.41 mm3
  Tumour volume (TVol): 70.08 mm3 and 324.15 mm3 and 133.86 mm3 and 295.48 mm3 and 98.69 mm3 and 328.18 mm3
HCT116 TP53 WT xenograft; day 17
  Mean TVol: 206.85 mm3
  Tumour volume (TVol): 71.54 mm3 and 333.55 mm3 and 123.78 mm3 and 277.24 mm3 and 67.49 mm3 and 367.52 mm3
HCT116 TP53 WT xenograft; day 21
  Mean TVol: 182.16 mm3
  Tumour volume (TVol): 68.28 mm3 and 318.05 mm3 and 133.60 mm3 and 239.83 mm3 and 55.74 mm3 and 277.43 mm3
HCT116 TP53 WT xenograft; day 24
  Mean TVol: 152.12 mm3
  Tumour volume (TVol): 51.97 mm3 and 322.25 mm3 and 104.45 mm3 and 220.64 mm3 and 35.09 mm3 and 178.30 mm3
HCT116 TP53 WT xenograft; day 29
  Mean TVol: 108.49 mm3
  Tumour volume (TVol): 53.97 mm3 and 224.74 mm3 and 66.70 mm3 and 182.17 mm3 and 28.07 mm3 and 95.29 mm3
HCT116 TP53 WT xenograft; day 31
  Mean TVol: 115.60 mm3
  Tumour volume (TVol): 67.20 mm3 and 248.87 mm3 and 79.67 mm3 and 165.88 mm3 and 35.96 mm3 and 96.04 mm3
HCT116 TP53 WT xenograft; day 35
  Mean TVol: 82.07 mm3
  Tumour volume (TVol): 74.11 mm3 and 171.12 mm3 and 62.35 mm3 and 120.74 mm3 and 20.08 mm3 and 43.99 mm3
HCT116 TP53 WT xenograft; day 38
  Mean TVol: 85.39 mm3
  Tumour volume (TVol): 95.75 mm3 and 187.18 mm3 and 54.75 mm3 and 135.21 mm3 and 15.88 mm3 and 23.55 mm3
HCT116 TP53 WT xenograft; day 42
  Mean TVol: 74.87 mm3
  Tumour volume (TVol): 111.35 mm3 and 127.20 mm3 and 44.64 mm3 and 140.38 mm3 and 12.27 mm3 and 13.40 mm3
HCT116 TP53 WT xenograft; day 45
  Mean TVol: 100.30 mm3
  Tumour volume (TVol): 197.14 mm3 and 123.97 mm3 and 48.50 mm3 and 218.58 mm3 and 10.09 mm3 and 3.53 mm3
HCT116 TP53 WT xenograft; day 49
  Mean TVol: 121.82 mm3
  Tumour volume (TVol): 316.70 mm3 and 100.63 mm3 and 72.22 mm3 and 229.46 mm3 and 10.59 mm3 and 1.31 mm3
HCT116 TP53 WT xenograft; day 53
  Mean TVol: 194.25 mm3
  Tumour volume (TVol): 483.74 mm3 and 180.66 mm3 and 93.29 mm3 and 393.80 mm3 and 13.76 mm3 and 0.25 mm3
HCT116 TP53 WT xenograft; day 56
  Mean TVol: 269.54 mm3
  Tumour volume (TVol): 671.24 mm3 and 160.85 mm3 and 148.76 mm3 and 618.00 mm3 and 18.36 mm3 and 0.00 mm3
HCT116 TP53 WT xenograft; day 60
  Mean TVol: 408.84 mm3
  Tumour volume (TVol): 1070.44 mm3 and 236.23 mm3 and 249.04 mm3 and 872.91 mm3 and 24.42 mm3 and 0.00 mm3
HEC151
  GI50: ≥ 10000 nM
hERG
  IC50: > 30000 nM
NUGC3
  GI50: ≥ 10000 nM
102 common targets
  Safety pharmacology panel (102 common targets): > 30 μM
HEC59
  GI50: 133 nM
HEC108
  GI50: 104 nM
HEC6
  GI50: 365 nM
SNU1
  GI50: ≥ 10000 nM
HCT116 cells
  start of WRN degradation: 8 h
2313287
  GI50: 2080 nM
